Key:
Flt4(h) = molecular target: T1, Flt4(h) (Homo sapiens, UniProt P35916); test: KinaseProfiler assay (Upstate), Flt4; type: biochemical
T1 construct: purchased Upstate Biotechnology (Dundee, UK), KinaseProfiler service
Experimental: (§1) Further enzyme assays were conducted at Upstate Biotechnology (Dundee, UK) in the KinaseProfiler™ Assay system.
(§2) The general protocol is as follows. All kinases are pre-diluted to a 10× working concentration prior to addition into the assay. The composition of the dilution buffer for the kinases is 20 mM MOPS pH 7.0, 1 mM EDTA, 0.1% β-mercaptoethanol, 0.01% Brij-35, 5% glycerol, 1 mg/ml BSA. All substrates are dissolved and diluted to working stocks in de-ionised water.

PDGFR β tyrosine kinase = molecular target: T2, PDGFR β tyrosine kinase (Homo sapiens, UniProt P09619); test: Alphascreen protein tyrosine kinase assay, PDGFRβ; type: biochemical
T2 construct: purchased Upstate Cell Signalling Solutions, CA, USA 14-463

Ret(h) = molecular target: T3, Ret(h) (Homo sapiens, UniProt P07949); test: KinaseProfiler assay (Upstate), Ret; type: biochemical
T3 construct: purchased Upstate Biotechnology (Dundee, UK), KinaseProfiler service
Experimental: as §1, §2
In a final reaction volume of 25 μl, Ret (h) (5-10 mU) is incubated with 8 mM MOPS pH 7.0, 0.2 mM EDTA, 250 μM […], 10 mM MgAcetate and [γ-33P-ATP] (specific activity approx. 500 cpm/pmol, concentration as required). The reaction is initiated by the addition of the MgATP mix. After incubation for 40 minutes at room temperature, the reaction is stopped by the addition of 5 μl of a 3% phosphoric acid solution. 10 μl of the reaction is then spotted onto a P30 filtermat and washed three times for 5 minutes in 75 mM phosphoric acid and once in methanol prior to drying and scintillation counting.

Baf3-WT = test: Cellular assay (Alamar Blue), Baf3-WT with mouse IL-3; type: cell-based; details: mouse IL-3 at 5 ng/ml, 72 hr
Experimental: (§3) Cells for the assays were prepared by harvesting cells from culture, and then diluting them in the appropriate growth medium to between 40,000 cell/mL and 600,000 cell/mL, depending on the cell line.
(§4) The compounds to be tested were added (104, 10× final concentration) to a flat bottomed 96-well plate. The cellular suspension (80 μL per well) was added, and one hour later the growth factor was added (human M-CSF at 20 ng/ml for mNFS-60, mouse IL-3 at 5 ng/ml for Baf3-WT). The plate was then incubated for 72 hr at 37° C., 5% CO2. Alamar Blue (10^4 per well) was added and the plates returned to the incubator for a further 4-8 hours.
(§5) The plates were then read using a fluorescence plate reader at excitation 544 nm and emission 590 nm.

Lck(h) = molecular target: T4, Lck(h) (Homo sapiens, UniProt P06239); test: KinaseProfiler assay (Upstate), Lck; type: biochemical
T4 construct: purchased Upstate Biotechnology (Dundee, UK), KinaseProfiler service
Experimental: as §1, §2
In a final reaction volume of 25 μl, Lck (h) (5-10 mU) is incubated with 50 mM Tris pH 7.5, 0.1 mM EGTA, 0.1 mM Na3VO4, 250 μM […] (Cdc2 peptide), 10 mM MgAcetate and [γ-33P-ATP] (specific activity approx. 500 cpm/pmol, concentration as required). The reaction is initiated by the addition of the MgATP mix. After incubation for 40 minutes at room temperature, the reaction is stopped by the addition of 5 μl of a 3% phosphoric acid solution. 10 μl of the reaction is then spotted onto a P30 filtermat and washed three times for 5 minutes in 75 mM phosphoric acid and once in methanol prior to drying and scintillation counting.

mNFS-60 = test: Cellular assay (Alamar Blue), mNFS-60 with human M-CSF; type: cell-based; details: human M-CSF at 20 ng/ml, 72 hr
Experimental: as §3, §4, §5

[1] = molecular target: T5, kinase domain of human c-kit (Homo sapiens, UniProt P10721); test: Alphascreen protein tyrosine kinase assay, c-KIT; type: biochemical
T5 construct: from codon M552 to end; made in house; host or cells: Sf9 insect cells (baculovirus)
Experimental: For screening purposes, compounds were diluted in 96 well plates at a concentration of 20 μM. Plates were warmed at 37° C. for 30 minutes before assay.
The kinase domain of human c-kit from codon M552 to end was cloned into the pDEST-20 expression vector (Invitrogen). The c-kit plasmid was then transformed into competent DH10Bac cells (Gibco), and the recombinant baculovirus produced prepared for transfection into Sf9 insect cells.
Baculovirus preparations from each of construct were infected into five liters of SF9 cells (Invitrogen) grown in SF-900 medium (Invitrogen) to a cell density of approximately 1−2×10^6 cells/ml. […] Cells were harvested and lysed. Tyrosine kinase domains were purified by affinity chromatography on a glutathione-agarose column (Scientifix Pty. Ltd. catalog #: GSH-200).
Kinase assays were performed in 384 well Optiplates (Packard) using an Alphascreen Protein Tyrosine Kinase kit. […] Alphascreen phosphotyrosine acceptor beads followed by streptavidin donor beads were added under subdued light. The Alphascreen plates were read on a Packard Fusion Alpha. Inhibitors were added to the assays thirty minutes prior to the addition of ATP. Inhibitors were added in aqueous DMSO, with DMSO concentrations never exceeding 1%.

T4 sequence (P06239 whole entry): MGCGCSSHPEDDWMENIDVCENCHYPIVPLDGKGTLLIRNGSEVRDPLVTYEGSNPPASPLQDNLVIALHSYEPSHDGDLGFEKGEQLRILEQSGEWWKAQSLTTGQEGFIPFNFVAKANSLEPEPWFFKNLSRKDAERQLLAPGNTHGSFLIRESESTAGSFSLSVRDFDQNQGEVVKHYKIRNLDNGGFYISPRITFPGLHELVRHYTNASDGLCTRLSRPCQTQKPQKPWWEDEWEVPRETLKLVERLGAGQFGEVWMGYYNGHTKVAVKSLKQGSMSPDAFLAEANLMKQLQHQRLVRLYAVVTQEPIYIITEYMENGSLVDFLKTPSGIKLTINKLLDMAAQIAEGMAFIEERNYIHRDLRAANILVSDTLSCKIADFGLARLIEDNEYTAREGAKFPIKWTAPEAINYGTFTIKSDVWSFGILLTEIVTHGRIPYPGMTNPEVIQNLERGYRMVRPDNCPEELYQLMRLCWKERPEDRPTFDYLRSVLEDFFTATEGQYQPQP
T1 sequence (P35916 25-1363): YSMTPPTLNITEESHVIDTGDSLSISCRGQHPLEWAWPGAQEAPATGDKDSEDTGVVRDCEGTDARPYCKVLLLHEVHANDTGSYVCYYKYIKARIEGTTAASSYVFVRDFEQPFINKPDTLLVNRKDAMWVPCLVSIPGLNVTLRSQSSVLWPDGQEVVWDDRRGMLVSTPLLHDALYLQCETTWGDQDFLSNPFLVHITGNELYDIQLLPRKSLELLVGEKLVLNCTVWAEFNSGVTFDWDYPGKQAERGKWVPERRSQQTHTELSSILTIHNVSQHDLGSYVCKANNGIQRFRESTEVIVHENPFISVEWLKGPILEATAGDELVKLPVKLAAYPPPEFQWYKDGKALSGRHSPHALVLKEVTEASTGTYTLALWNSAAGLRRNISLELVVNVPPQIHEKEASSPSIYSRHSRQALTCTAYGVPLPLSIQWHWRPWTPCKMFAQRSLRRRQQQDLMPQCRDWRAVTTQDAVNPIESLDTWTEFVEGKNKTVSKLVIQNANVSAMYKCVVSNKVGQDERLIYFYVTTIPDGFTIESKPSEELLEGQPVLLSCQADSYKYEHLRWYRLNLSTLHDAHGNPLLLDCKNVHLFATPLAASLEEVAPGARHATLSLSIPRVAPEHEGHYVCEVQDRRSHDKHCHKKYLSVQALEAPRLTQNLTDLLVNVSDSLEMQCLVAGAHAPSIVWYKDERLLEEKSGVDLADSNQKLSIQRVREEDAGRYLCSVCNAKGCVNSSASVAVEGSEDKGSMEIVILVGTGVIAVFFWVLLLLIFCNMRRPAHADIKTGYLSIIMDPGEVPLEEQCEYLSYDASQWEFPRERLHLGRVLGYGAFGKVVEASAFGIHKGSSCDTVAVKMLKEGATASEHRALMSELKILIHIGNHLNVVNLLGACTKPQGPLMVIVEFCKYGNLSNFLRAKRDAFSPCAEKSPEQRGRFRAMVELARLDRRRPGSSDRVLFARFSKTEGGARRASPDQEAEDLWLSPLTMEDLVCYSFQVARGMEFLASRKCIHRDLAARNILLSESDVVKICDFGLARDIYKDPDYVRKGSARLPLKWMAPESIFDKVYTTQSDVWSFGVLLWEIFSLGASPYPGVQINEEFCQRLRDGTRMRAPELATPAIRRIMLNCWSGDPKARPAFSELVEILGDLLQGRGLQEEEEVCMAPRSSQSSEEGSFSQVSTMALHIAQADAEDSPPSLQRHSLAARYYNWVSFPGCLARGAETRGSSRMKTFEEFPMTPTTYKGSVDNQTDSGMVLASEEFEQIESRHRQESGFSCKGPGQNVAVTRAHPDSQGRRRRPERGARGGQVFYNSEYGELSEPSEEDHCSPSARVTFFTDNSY
T3 sequence (P07949 29-1114): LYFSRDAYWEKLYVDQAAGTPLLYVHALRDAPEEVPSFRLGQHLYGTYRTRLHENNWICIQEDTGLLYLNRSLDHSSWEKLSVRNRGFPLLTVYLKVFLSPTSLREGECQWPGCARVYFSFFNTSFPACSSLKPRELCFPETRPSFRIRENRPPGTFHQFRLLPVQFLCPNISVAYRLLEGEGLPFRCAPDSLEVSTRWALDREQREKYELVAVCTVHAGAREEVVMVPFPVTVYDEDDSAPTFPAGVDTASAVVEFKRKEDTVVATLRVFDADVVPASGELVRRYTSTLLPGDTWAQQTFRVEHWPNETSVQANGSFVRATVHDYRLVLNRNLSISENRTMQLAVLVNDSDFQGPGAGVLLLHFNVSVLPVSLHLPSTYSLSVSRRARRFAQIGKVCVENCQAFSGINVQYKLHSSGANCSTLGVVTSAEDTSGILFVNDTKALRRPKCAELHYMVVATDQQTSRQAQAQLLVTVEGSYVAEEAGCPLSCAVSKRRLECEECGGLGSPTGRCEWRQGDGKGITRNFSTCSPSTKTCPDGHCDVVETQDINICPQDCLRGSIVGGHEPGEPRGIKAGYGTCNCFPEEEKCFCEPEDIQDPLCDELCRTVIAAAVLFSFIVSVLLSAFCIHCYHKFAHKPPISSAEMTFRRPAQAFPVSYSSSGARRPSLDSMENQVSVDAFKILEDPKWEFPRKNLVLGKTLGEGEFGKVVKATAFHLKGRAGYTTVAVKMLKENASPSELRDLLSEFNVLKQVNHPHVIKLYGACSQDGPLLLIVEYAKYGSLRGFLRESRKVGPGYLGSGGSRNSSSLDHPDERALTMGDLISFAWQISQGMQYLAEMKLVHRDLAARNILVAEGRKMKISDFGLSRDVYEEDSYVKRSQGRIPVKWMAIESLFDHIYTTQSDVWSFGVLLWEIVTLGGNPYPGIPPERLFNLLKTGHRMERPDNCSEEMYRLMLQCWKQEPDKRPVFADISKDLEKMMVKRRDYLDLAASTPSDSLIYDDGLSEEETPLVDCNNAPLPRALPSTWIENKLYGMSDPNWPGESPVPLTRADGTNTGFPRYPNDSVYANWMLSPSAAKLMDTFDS
T2 sequence (P09619 33-1106): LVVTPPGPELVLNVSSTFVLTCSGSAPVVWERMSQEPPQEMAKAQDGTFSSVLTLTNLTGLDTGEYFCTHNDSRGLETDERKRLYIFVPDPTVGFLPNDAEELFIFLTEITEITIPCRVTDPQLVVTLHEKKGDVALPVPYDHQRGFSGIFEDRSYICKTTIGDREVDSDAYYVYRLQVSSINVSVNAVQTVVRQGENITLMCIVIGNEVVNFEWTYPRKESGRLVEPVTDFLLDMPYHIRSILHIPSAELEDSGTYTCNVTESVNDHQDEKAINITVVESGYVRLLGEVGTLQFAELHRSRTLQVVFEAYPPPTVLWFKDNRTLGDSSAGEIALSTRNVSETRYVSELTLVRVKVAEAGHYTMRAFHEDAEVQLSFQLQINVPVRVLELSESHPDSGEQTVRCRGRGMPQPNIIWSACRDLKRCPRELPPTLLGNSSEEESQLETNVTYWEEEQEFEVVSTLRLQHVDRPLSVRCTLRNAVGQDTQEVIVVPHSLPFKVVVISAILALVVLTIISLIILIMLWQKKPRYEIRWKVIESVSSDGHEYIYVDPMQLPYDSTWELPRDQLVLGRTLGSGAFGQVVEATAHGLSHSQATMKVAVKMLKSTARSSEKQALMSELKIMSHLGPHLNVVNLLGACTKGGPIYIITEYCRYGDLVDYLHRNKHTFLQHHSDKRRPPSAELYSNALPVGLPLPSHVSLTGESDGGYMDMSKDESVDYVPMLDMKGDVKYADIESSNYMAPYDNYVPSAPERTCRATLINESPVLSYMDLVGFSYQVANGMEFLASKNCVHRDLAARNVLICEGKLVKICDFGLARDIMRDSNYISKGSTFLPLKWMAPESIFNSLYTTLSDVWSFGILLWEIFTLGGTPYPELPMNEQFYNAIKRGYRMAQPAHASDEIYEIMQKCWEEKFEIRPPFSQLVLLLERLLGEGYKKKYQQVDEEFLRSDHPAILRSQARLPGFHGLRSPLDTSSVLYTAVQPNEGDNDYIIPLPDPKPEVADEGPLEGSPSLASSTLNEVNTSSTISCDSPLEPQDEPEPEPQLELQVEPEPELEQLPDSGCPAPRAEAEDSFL
T5 sequence (P10721 552-976 limits assumed): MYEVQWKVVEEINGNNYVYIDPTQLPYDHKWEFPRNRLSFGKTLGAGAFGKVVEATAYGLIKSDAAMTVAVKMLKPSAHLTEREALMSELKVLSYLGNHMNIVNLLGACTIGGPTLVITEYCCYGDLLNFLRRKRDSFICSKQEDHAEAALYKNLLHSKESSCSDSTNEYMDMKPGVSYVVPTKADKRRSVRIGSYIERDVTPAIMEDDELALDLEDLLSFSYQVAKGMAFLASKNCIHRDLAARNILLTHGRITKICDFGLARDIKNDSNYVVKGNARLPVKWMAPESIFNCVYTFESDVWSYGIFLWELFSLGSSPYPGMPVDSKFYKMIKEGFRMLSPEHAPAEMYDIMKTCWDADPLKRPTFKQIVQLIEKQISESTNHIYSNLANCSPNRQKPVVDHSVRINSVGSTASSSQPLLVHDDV

Cc1cccc(C(=O)Nc2cccc([C@H](C)Nc3cncc(-c4ccc(S(N)(=O)=O)cc4)n3)c2)c1 [Compound 77]
inhibition at 0.1 µM (Flt4(h)): 98% | inhibition at 1 µM (Flt4(h)): 97% | IC50 (PDGFR β tyrosine kinase): < 1000 nM | inhibition at 0.1 µM (Ret(h)): 22% | inhibition at 1 µM (Ret(h)): 67% | IC50 (Baf3-WT): > 10000 nM | inhibition at 0.1 µM (Lck(h)): 45% | inhibition at 1 µM (Lck(h)): 84% | IC50 (mNFS-60): < 200 nM | IC50 [1]: < 100 nM

C[C@H](Nc1cncc(Cl)n1)c1cccc(NC(=O)c2cccc(C(F)(F)F)c2)c1 [Compound 114, (S)—N-(3-(1-(6-chloropyrazin-2-ylamino)ethyl)phenyl)-3-(trifluoromethyl)benzamide]
inhibition at 0.1 µM (Flt4(h)): 92% | inhibition at 1 µM (Flt4(h)): 99% | IC50 (PDGFR β tyrosine kinase): < 100 nM | inhibition at 0.1 µM (Ret(h)): 66% | inhibition at 1 µM (Ret(h)): 95% | IC50 (Baf3-WT): > 10000 nM | inhibition at 0.1 µM (Lck(h)): 53% | inhibition at 1 µM (Lck(h)): 90% | IC50 (mNFS-60): < 1000 nM | IC50 [1]: < 1000 nM

Cc1cccc(C(=O)Nc2cccc([C@H](C)Nc3cncc(-c4ccc(N5CCN(C)CC5)cc4)n3)c2)c1 [Compound 129]
inhibition at 0.1 µM (Flt4(h)): 100% | inhibition at 1 µM (Flt4(h)): 100% | IC50 (PDGFR β tyrosine kinase): < 100 nM | inhibition at 0.1 µM (Ret(h)): 19% | inhibition at 1 µM (Ret(h)): 75% | IC50 (Baf3-WT): < 10000 nM | inhibition at 0.1 µM (Lck(h)): 73% | inhibition at 1 µM (Lck(h)): 96% | IC50 (mNFS-60): < 200 nM | IC50 [1]: < 100 nM

Cc1cccc(C(=O)Nc2cccc([C@H](C)Nc3cncc(C(N)=O)n3)c2)c1 [Compound 133, (S)-6-(1-(3-(3-methylbenzamido)phenyl)ethylamino)pyrazine-2-carboxamide]
inhibition at 0.1 µM (Flt4(h)): 95% | inhibition at 1 µM (Flt4(h)): 100% | IC50 (PDGFR β tyrosine kinase): < 100 nM | inhibition at 0.1 µM (Ret(h)): 1% | inhibition at 1 µM (Ret(h)): 36% | IC50 (Baf3-WT): > 10000 nM | inhibition at 0.1 µM (Lck(h)): 0% | inhibition at 1 µM (Lck(h)): 16% | IC50 (mNFS-60): < 200 nM | IC50 [1]: < 100 nM

Cc1cccc(C(=O)Nc2cccc([C@H](C)Nc3cncc(-n4ccnc4)n3)c2)c1 [Compound 143, (S)—N-(3-(1-(6-(1H-imidazol-1-yl)pyrazin-2-ylamino)ethyl)phenyl)-3-methylbenzamide]
inhibition at 0.1 µM (Flt4(h)): 95% | inhibition at 1 µM (Flt4(h)): 99% | IC50 (PDGFR β tyrosine kinase): < 100 nM | inhibition at 0.1 µM (Ret(h)): 8% | inhibition at 1 µM (Ret(h)): 58% | IC50 (Baf3-WT): < 10000 nM | inhibition at 0.1 µM (Lck(h)): 24% | inhibition at 1 µM (Lck(h)): 77% | IC50 (mNFS-60): < 200 nM | IC50 [1]: < 100 nM

Cc1cccc(C(=O)Nc2cccc([C@H](C)Nc3cncc(-c4cccc(N5CCOCC5)c4)n3)c2)c1 [Compound 147]
inhibition at 0.1 µM (Flt4(h)): 100% | inhibition at 1 µM (Flt4(h)): 99% | IC50 (PDGFR β tyrosine kinase): < 100 nM | inhibition at 0.1 µM (Ret(h)): 68% | inhibition at 1 µM (Ret(h)): 92% | IC50 (Baf3-WT): > 10000 nM | inhibition at 0.1 µM (Lck(h)): 50% | inhibition at 1 µM (Lck(h)): 89% | IC50 (mNFS-60): < 200 nM | IC50 [1]: < 100 nM

C[C@H](Nc1cncc(-c2ccc(N3CCN(C)CC3)cc2)n1)c1cccc(NC(=O)c2cccc(C(F)(F)F)c2)c1 [Compound 148]
inhibition at 0.1 µM (Flt4(h)): 96% | inhibition at 1 µM (Flt4(h)): 99% | IC50 (PDGFR β tyrosine kinase): < 100 nM | inhibition at 0.1 µM (Ret(h)): 89% | inhibition at 1 µM (Ret(h)): 96% | IC50 (Baf3-WT): < 10000 nM | inhibition at 0.1 µM (Lck(h)): 95% | inhibition at 1 µM (Lck(h)): 97% | IC50 (mNFS-60): < 200 nM | IC50 [1]: < 100 nM

C[C@H](Nc1cncc(-c2cccc(N3CCOCC3)c2)n1)c1cccc(NC(=O)c2cccc(C(F)(F)F)c2)c1 [Compound 149]
inhibition at 0.1 µM (Flt4(h)): 96% | inhibition at 1 µM (Flt4(h)): 99% | IC50 (PDGFR β tyrosine kinase): < 100 nM | inhibition at 0.1 µM (Ret(h)): 89% | inhibition at 1 µM (Ret(h)): 96% | IC50 (Baf3-WT): > 10000 nM | inhibition at 0.1 µM (Lck(h)): 68% | inhibition at 1 µM (Lck(h)): 95% | IC50 (mNFS-60): < 1000 nM | IC50 [1]: < 1000 nM

Cc1cccc(C(=O)Nc2ccc(C)c([C@H](C)Nc3cncc(Cl)n3)c2)c1 [Compound 168]
inhibition at 0.1 µM (Flt4(h)): 96% | inhibition at 1 µM (Flt4(h)): 97% | inhibition at 0.1 µM (Ret(h)): 39% | inhibition at 1 µM (Ret(h)): 95% | inhibition at 0.1 µM (Lck(h)): 85% | inhibition at 1 µM (Lck(h)): 98%
